Assay [1] deals with T1, natural (wild type) E. indica EPSPS (EiEPSPS), recombinant expressed in E. coli (Eleusine indica, UniProt Q95AK0).
T1 sequence (Q95AK0 43-445): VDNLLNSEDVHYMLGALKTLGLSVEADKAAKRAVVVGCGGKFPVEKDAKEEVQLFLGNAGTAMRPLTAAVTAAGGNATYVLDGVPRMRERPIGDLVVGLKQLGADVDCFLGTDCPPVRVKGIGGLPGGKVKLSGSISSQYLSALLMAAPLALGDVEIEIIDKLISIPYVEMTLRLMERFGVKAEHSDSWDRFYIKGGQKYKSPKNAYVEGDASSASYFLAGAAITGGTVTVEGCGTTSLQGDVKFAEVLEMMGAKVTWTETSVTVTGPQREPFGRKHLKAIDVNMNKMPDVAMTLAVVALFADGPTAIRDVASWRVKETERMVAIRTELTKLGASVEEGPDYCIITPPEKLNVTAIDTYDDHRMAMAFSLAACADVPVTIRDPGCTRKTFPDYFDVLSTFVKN
Briefly: ForteBio Octet binding kinetics, wild type EPSPS. As for the experimental part:
(§1) Target EPSPS genes with different mutations were amplified through PCR using primers (Supplementary Table S4) and the synthesised cDNA, then cloned into the BamHI and HindIII cleavage sites of the pET-28a expression vector (New England Biolabs Inc., Ipswich, MA, USA). After DNA sequencing, the pET-28a plasmid (Thermo Fisher Scientific Inc., Waltham MA, USA) containing the target genes was transformed into BL21 (DE3) cells (Thermo Fisher Scientific Inc.). Selected clones were cultured in Luria-Bertani medium. Cells containing target genes that had grown to an OD600 of 0.5 were induced with […] IPTG (0487; Amresco LLC, Solon, OH, USA) at 37 °C for 4 h. The cells were then pelleted through centrifugation at 10,000× g for 10 min and resuspended in 50 mM Tris-HCl and 150 mM NaCl, pH 7.4 (buffer A). The suspension was sonicated and centrifuged at 12,000× g for 30 min, the supernatant was filtered through a 0.22 µm membrane and passed through a HiTrap His column (10318950; Cytiva, Global Life Sciences Solutions USA, LLC., Marlborough, MA, USA). […] Target protein concentrations were determined using the Bradford method (500-0001) with Dye Reagent (both from Bio-Rad Laboratories Inc., Hercules, CA, USA).
To prevent primary amines reducing the biotinylation ratio, the EPSPS and mutations were exchanged with PBS buffer using a PD10 desalting column (17085101; Cytiva, Global Life Sciences Solutions USA, LLC.) as described by the manufacturer. The proteins were then concentrated using an ultrafilter (Merck KGaA, Darmstadt, Germany), then the concentrations were determined, as described above. […] A mixture of protein and sulfo-NHS-LC-biotin at a molar ratio of 1:5 was incubated at 4 °C for 16 h, then free biotin molecules were removed using a PD10 desalting column and biotinylated protein concentrations were measured using the Bradford method. […]
(§2) Data for protein-small molecule binding studies and curve fitting were analysed using ForteBio Data Analysis Software v. […]

Assay [2] deals with E. indica EPSPS Pro106Leu (P106L) mutant, recombinant expressed in E. coli (Eleusine indica, UniProt Q95AK0, P107L). Briefly: biochemical. Format: binding. As for the experimental part:
(§3) Target EPSPS genes with different mutations were amplified through PCR using primers (Supplementary Table S4) and the synthesised cDNA, then cloned into the BamHI and HindIII cleavage sites of the pET-28a expression vector (New England Biolabs Inc., Ipswich, MA, USA). After DNA sequencing, the pET-28a plasmid (Thermo Fisher Scientific Inc., Waltham MA, USA) containing the target genes was transformed into BL21 (DE3) cells (Thermo Fisher Scientific Inc.). Selected clones were cultured in Luria-Bertani medium. Cells containing target genes that had grown to an OD600 of 0.5 were induced with […] IPTG (0487; Amresco LLC, Solon, OH, USA) at 37 °C for 4 h. The cells were then pelleted through centrifugation at 10,000× g for 10 min and resuspended in 50 mM Tris-HCl and 150 mM NaCl, pH 7.4 (buffer A). The suspension was sonicated and centrifuged at 12,000× g for 30 min, the supernatant was filtered through a 0.22 µm membrane and passed through a HiTrap His column (10318950; Cytiva, Global Life Sciences Solutions USA, LLC., Marlborough, MA, USA). Target proteins were eluted with 50 mM Tris-HCl, 150 mM NaCl, 500 mM imidazole, pH 7.4 (buffer B), resolved through SDS-PAGE, and identified through MALDI-TOF mass spectrometry. Target protein concentrations were determined using the Bradford method (500-0001) with Dye Reagent (both from Bio-Rad Laboratories Inc., Hercules, CA, USA).
(§4) To prevent primary amines reducing the biotinylation ratio, the EPSPS and mutations were exchanged with PBS buffer using a PD10 desalting column (17085101; Cytiva, Global Life Sciences Solutions USA, LLC.) as described by the manufacturer. The proteins were then concentrated using an ultrafilter (Merck KGaA, Darmstadt, Germany), then the concentrations were determined, as described above. The proteins were biotinylated using the EZ-Link™ Sulfo-NHS-LC-biotinylation kit (21435; Thermo Fisher Scientific Inc.) as described by the manufacturer. A mixture of protein and sulfo-NHS-LC-biotin at a molar ratio of 1:5 was incubated at 4 °C for 16 h, then free biotin molecules were removed using a PD10 desalting column and biotinylated protein concentrations were measured using the Bradford method.
(§5) We used a ForteBio Octet 96 with high-capacity Super Streptavidin (SSA) biosensors (18-5057; Sartorius Stedim Biotech GmbH, Göttingen, Germany) to study the protein-small molecule binding, and to derive the relevant kinetic data, as well as the affinity constants. The SSA sensors were activated in 50 mM HEPES buffer (pH 7.5) containing 0.02% Tween 20 (v/v) for 10 min, then biotinylated proteins were loaded onto them online for 2 min. Thereafter, the sensors were quenched with 2 μg mL^−1 of biocytin (B1592 Thermo Fisher Scientific Inc.) for 60 s. […] To obtain accurate interaction kinetics, a reference well (containing only buffer) and a reference biosensor were included in the assay for double subtraction analysis.
(§6) Data for protein-small molecule binding studies and curve fitting were analysed using ForteBio Data Analysis Software v. 9.0. Dissociation constants (KD) indicating binding affinity for protein-small molecules were derived by determining Kon and Koff (association and disassociation rate constants, respectively); KD = Koff/Kon.

In assay [3] the target is E. indica EPSPS Pro106Ser (P106S) mutant, recombinant expressed in E. coli (Eleusine indica, UniProt Q95AK0, P107S). Briefly: biochemical. Format: binding. As for the experimental part:
as §3, §4, §5, §6

Assay [4] deals with E. indica EPSPS Thr102Ile + Pro106Ser (TIPS) mutant, recombinant expressed in E. coli (Eleusine indica, UniProt Q95AK0, P107S/T103I). Briefly: biochemical. Type of assay: binding. As for the experimental part: as §3, §4, §5, §6
E. indica EPSPS Thr102Ile + Pro106Ser (TIPS) mutant, recombinant expressed in E. coli, sequence (Q95AK0 entry or part of it T103I/P107S): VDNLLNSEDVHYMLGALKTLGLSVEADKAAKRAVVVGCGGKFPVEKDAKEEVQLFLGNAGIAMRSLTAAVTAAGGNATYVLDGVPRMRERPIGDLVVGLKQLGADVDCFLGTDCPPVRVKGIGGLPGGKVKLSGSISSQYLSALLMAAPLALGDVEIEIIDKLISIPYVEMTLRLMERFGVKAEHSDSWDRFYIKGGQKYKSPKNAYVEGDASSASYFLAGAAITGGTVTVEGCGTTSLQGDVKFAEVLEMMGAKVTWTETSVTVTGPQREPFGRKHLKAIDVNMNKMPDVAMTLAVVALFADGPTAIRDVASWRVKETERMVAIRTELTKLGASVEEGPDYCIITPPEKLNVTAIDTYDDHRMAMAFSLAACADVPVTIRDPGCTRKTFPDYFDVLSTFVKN
Assay [5] relates to E. indica LL population (homozygous P106L in EPSPS). Kind of assay: Whole-plant dose-response assay, LL population. Type of assay: in vivo, Eleusine indica. Conditions: glyphosate alone, fresh weight at 21 DAT, value ± SE. As to the method:
(§7) Plants with homozygous mutations Pro106Ser (P106S), Pro106Leu (P106L), Thr102Ile + Pro106Ser (TIPS), and WT were screened from a population with a similar background, as we previously described. […] Plants with the same confirmed genotype were cultured (bulk in isolation) and the seeds were produced and purified. The purified subpopulations were named SS, LL, IISS, and WT. […] The plants were cultured under greenhouse conditions of day and night temperatures of 30 °C and 20 °C (±2 °C), respectively, with a relative humidity of 60% ± 20%, and a 14-h photoperiod, during which LEDs provided light intensity of 300 μmol m^−2 s^−1. After thinning, eight plants per pot were maintained. […] [18]. Thereafter, P450- (10 mM piperonylbutoxide) and GST-inhibitors (3 mM 4-chloro-7-nitro-1, 2, 3-benzoxadiazole) were sprayed to exclude other non-target-site resistance mechanisms. […] Water and inhibitors were applied through control spraying (Supplementary Tables S1 and S3). The fresh weight of the fresh aboveground tissues was measured at 21 DAT. Whole-plant assays were repeated twice in a completely randomised design.
(§8) Data from the whole-plant assays and emerged seedlings were analysed through nonlinear regression using a log-logistic model: y = y0 + a/[1 + (x/x0)^b] in SigmaPlot 12.0 (Systat Software, San Jose, CA, USA).

The subject of assay [6] is E. indica SS population (homozygous P106S in EPSPS). Briefly: Whole-plant dose-response assay, SS population. Format: in vivo, Eleusine indica. Particulars: glyphosate alone, fresh weight at 21 DAT, value ± SE. As to the method:
as §7, §8

In assay [7] the test system is E. indica IISS population (homozygous TIPS in EPSPS). Kind of assay: Whole-plant dose-response assay, IISS population. Format: in vivo, Eleusine indica. Conditions: glyphosate alone, fresh weight at 21 DAT, value ± SE. As to the method: as §7, §8
A further assay concerns wild type (WT) E. indica. Kind of assay: Shikimate accumulation assay, WT population. Particulars: 1800 g a.e. ha^−1 (7.1 mM) glyphosate, seven DAT. Type of assay: in vivo, Eleusine indica. As to the method: Leaf tissue samples collected on 1, 3, 5, and 7 DAT were finely ground in liquid nitrogen, added to 1.0 mL of 0.25 mol L^−1 cold HCl, and centrifuged at 12,000 rpm for 30 min. Supernatants (0.2 mL) were incubated with 2 mL of 1% periodic acid for 3 h at room temperature. Thereafter, 2 mL of 1 mol L^−1 NaOH and 1.2 mL of 0.1 mol L^−1 glycine were added, then the optical density of 0.2 mL/well was determined in 96-well plates at 380 nm using a Tecan Infinite 200 Pro plate reader (Tecan Group Ltd., Männedorf, Switzerland). The results for all samples were compared with a standard curve of 0.1–400.0 μg shikimate and are expressed as μg of shikimate g^−1 fresh tissue. This experiment was repeated twice.

The target in assay [8] is E. indica EPSPS enzymes (WT, P106L, P106S, TIPS). Briefly: ForteBio Octet binding, range over the EPSPS enzymes. The arrangement: species or system Eleusine indica. As for the experimental part:
as §1, with “h.” for “h. The cells were then pelleted through centrifugation at 10,000× g for 10 min and resuspended in 50 mM Tris-HCl and 150 mM NaCl, pH 7.4 (buffer A). The suspension was sonicated and centrifuged at 12,000× g for 30 min, the supernatant was filtered through a 0.22 µm membrane and passed through a HiTrap His column (10318950; Cytiva, Global Life Sciences Solutions USA, LLC., Marlborough, MA, USA).”
To prevent primary amines reducing the biotinylation ratio, the EPSPS and mutations were exchanged with PBS buffer using a PD10 desalting column (17085101; Cytiva, Global Life Sciences Solutions USA, LLC.) as described by the manufacturer. The proteins were then concentrated using an ultrafilter (Merck KGaA, Darmstadt, Germany), then the concentrations were determined, as described above. […]
as §2

Assay [9] addresses T2, His-tagged recombinant EiEPSPS, Pro106Ser (SS) (Eleusine indica, UniProt Q95AK0, P107S).
T2 sequence (Q95AK0 43-445 P107S): T1 sequence (Q95AK0 43-445) with P65S
Briefly: EPSPS Michaelis-Menten kinetics, Pro106Ser. Format: biochemical. Particulars: P106S mutant vs natural EPSPS.
Source text: (§9) Figure 2 Characteristics of EPSPS with different mutations (WT, P106S, P106L, and TIPS) from purified enzyme extracts of Escherichia coli variants. […] Reactions were detected as phosphate concentrations based on a standard curve (y = 97.049x − 0.4245, R^2 = 0.99). This experiment was repeated twice with three biological replicates.
as §1, with “A).” for “A). The suspension was sonicated and centrifuged at 12,000× g for 30 min, the supernatant was filtered through a 0.22 µm membrane and passed through a HiTrap His column (10318950; Cytiva, Global Life Sciences Solutions USA, LLC., Marlborough, MA, USA).”

The target of assay [10] is T3, His-tagged recombinant EiEPSPS, Pro106Leu (LL) (Eleusine indica, UniProt Q95AK0, P107L).
T3 sequence (Q95AK0 43-445 P107L): T1 sequence (Q95AK0 43-445) with P65L
Kind of assay: EPSPS Michaelis-Menten kinetics, Pro106Leu. Type of assay: biochemical. Conditions: P106L mutant vs natural EPSPS.
Source text: as §9
as §1, with “A).” for “A). The suspension was sonicated and centrifuged at 12,000× g for 30 min, the supernatant was filtered through a 0.22 µm membrane and passed through a HiTrap His column (10318950; Cytiva, Global Life Sciences Solutions USA, LLC., Marlborough, MA, USA).”

Assay [11] deals with T4, His-tagged recombinant EiEPSPS, Thr102Ile + Pro106Ser (IISS) (Eleusine indica, UniProt Q95AK0, P107S/T103I).
T4 sequence (Q95AK0 43-445 T103I/P107S): T1 sequence (Q95AK0 43-445) with T61I, P65S
Briefly: EPSPS Michaelis-Menten kinetics, Thr102Ile + Pro106Ser. Type of assay: biochemical. Particulars: TIPS mutant vs natural EPSPS.
Source text: as §9
as §1, with “A).” for “A). The suspension was sonicated and centrifuged at 12,000× g for 30 min, the supernatant was filtered through a 0.22 µm membrane and passed through a HiTrap His column (10318950; Cytiva, Global Life Sciences Solutions USA, LLC., Marlborough, MA, USA).”

Where [12] appears, read: pH 7.5, read-out: Kon, association rate constant.

Where a chain is given by its changes, count along the chain named. Where two headings read alike, the source gives them in different places.

E. indica EPSPS Pro106Leu (P106L) mutant, recombinant expressed in E. coli, sequence (Q95AK0 entry or part of it P107L): as the sequence (Q95AK0 entry or part of it T103I/P107S) above, with I61T, S65L counted along it
E. indica EPSPS Pro106Ser (P106S) mutant, recombinant expressed in E. coli, sequence (Q95AK0 entry or part of it P107S): as the sequence (Q95AK0 entry or part of it T103I/P107S) above, with I61T counted along it

Turning to `O=C(O)CNCP(=O)(O)O` [Glyphosate, glyphosate], the Kd in [1] was 0.058 mM; in assay [2] it was 0.028 mM; in assay [3], 0.025 mM; in [4], 0.023 mM. Further, the “x0, herbicide dose required for 50% plant growth reduction (GR50)” value in assay [5] was determined as 707.2 ± 122.1 g a.e. ha^-1; in assay [6] it was 540.5 ± 25.6 g a.e. ha^-1; in assay [7], 3272.9 ± 164.1 g a.e. ha^-1. The “shikimate accumulation in leaf tissues” value in the assay with wild type (WT) E. indica came out at 366.4 µg/g.

As for `C=C(OP(=O)(O)O)C(=O)O` [PEP, phosphoenolpyruvate], the Kd in assay [1] (Wild type EPSPS, Octet SSA biosensors, HEPES pH 7.5, read-out: KD, dissociation constant (KD = Koff/Kon)) is 3.1 mM; in [2], 1.1 mM; in assay [3], 1.2 mM; in assay [4] it was 2 mM; in assay [8], 1.1 to 3.1 mM. Also, the kon amounted to 8 M⁻¹ s⁻¹ in assay [1] (Wild type EPSPS, Octet SSA biosensors, HEPES pH 7.5, read-out: Kon, association rate constant); 31.3 M⁻¹ s⁻¹ in assay [2] (setting [12]); 31.8 M⁻¹ s⁻¹ in assay [3] (setting [12]); 33 M⁻¹ s⁻¹ in assay [4] (Thr102Ile + Pro106Ser EPSPS, Octet SSA biosensors, HEPES pH 7.5, read-out: Kon, association rate constant). Besides, the “Km (PEP) fold relative to natural EPSPS” value in assay [9] came to 0.7 fold; in assay [10], 2.4 fold; in [11] it was 4.1 fold.

The values are drawn from PMC10179075 (International Journal of Molecular Sciences, 2023).
